Values joined by “and” are separate entries in the source; they are usually repeats but may differ in a detail not shown here. Equal values may be shown once. Toxic doses and inconclusive results are not listed.
Tested on: L1210 leukemia ip in BDF1 mice, survival T/C
Assay: NCI In Vivo Anticancer Drug Screen. Data for tumor model L1210 Leukemia (intraperitoneal) in B6D2F1 (BDF1) mice
Settings: endpoint: mean survival time, higher = longer survival
How it was run: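 Mice bearing the transplanted tumor received compound or vehicle. Survival of the treated group was divided by that of the vehicle-treated control group to give the ratio.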

[1] = dose: 100.0 mg/kg/injection, schedule: Q01DX001 (ip), vehicle: saline
[2] = dose: 200.0 mg/kg/injection, schedule: Q01DX001 (ip), vehicle: saline
[3] = dose: 400.0 mg/kg/injection, schedule: Q01DX001 (ip), vehicle: saline
[4] = dose: 50.0 mg/kg/injection, schedule: Q01DX001 (ip), vehicle: Klucel (hydroxypropylcellulose) (HPC)
[5] = dose: 100.0 mg/kg/injection, schedule: Q01DX001 (ip), vehicle: Klucel (hydroxypropylcellulose) (HPC)
[6] = dose: 200.0 mg/kg/injection, schedule: Q01DX001 (ip), vehicle: Klucel (hydroxypropylcellulose) (HPC)
[7] = dose: 100.0 mg/kg/injection, schedule: Q01DX009 (ip), vehicle: saline with Tween-80
[8] = dose: 200.0 mg/kg/injection, schedule: Q01DX009 (ip), vehicle: saline with Tween-80
[9] = dose: 400.0 mg/kg/injection, schedule: Q01DX001 (ip), vehicle: Klucel (hydroxypropylcellulose) (HPC)

With `Cc1c(O)ccc(=O)n1O` the T/C (dose: 10.4 mg/kg/injection, schedule: Q03HX024 (ip), vehicle: Klucel (hydroxypropylcellulose) (HPC)) was 97 % of control, the T/C (dose: 12.0 mg/kg/injection, schedule: Q01DX009 (ip), vehicle: Klucel (hydroxypropylcellulose) (HPC)) was 107 % of control and the T/C (dose: 15.6 mg/kg/injection, schedule: Q03HX024 (ip), vehicle: Klucel (hydroxypropylcellulose) (HPC)) was 96 % of control. For the same compound, the T/C (dose: 22.8 mg/kg/injection, schedule: Q03HX024 (ip), vehicle: Klucel (hydroxypropylcellulose) (HPC)) was 93 % of control, the T/C (dose: 24.0 mg/kg/injection, schedule: Q01DX009 (ip), vehicle: Klucel (hydroxypropylcellulose) (HPC)) was 102 % of control and the T/C (dose: 34.8 mg/kg/injection, schedule: Q03HX024 (ip), vehicle: Klucel (hydroxypropylcellulose) (HPC)) was 98 % of control. The T/C (dose: 48.0 mg/kg/injection, schedule: Q01DX009 (ip), vehicle: Klucel (hydroxypropylcellulose) (HPC)) was 107 % of control, the T/C (dose: 49.0 mg/kg/injection, schedule: Q01DX Z (ip), vehicle: carboxymethylcellulose (CMC)) was 109 % of control and the T/C (dose: 49.0 mg/kg/injection, schedule: Q01DX Z (ip), vehicle: methylcellulose (MC)) was 100 % of control and 110 % of control. The T/C (dose: 52.0 mg/kg/injection, schedule: Q01DX009 (ip), vehicle: Klucel (hydroxypropylcellulose) (HPC)) was 103 % of control, the T/C (dose: 52.0 mg/kg/injection, schedule: Q03HX024 (ip), vehicle: Klucel (hydroxypropylcellulose) (HPC)) was 100 % of control and 105 % of control and the T/C (dose: 62.0 mg/kg/injection, schedule: Q03HX024 (ip), vehicle: saline with Tween-80) was 92 % of control. For the same compound, the T/C (dose: 73.0 mg/kg/injection, schedule: Q01DX Z (ip), vehicle: carboxymethylcellulose (CMC)) was 111 % of control, the T/C (dose: 73.0 mg/kg/injection, schedule: Q01DX Z (ip), vehicle: methylcellulose (MC)) was 93 % of control and the T/C (dose: 89.0 mg/kg/injection, schedule: Q01DX001 (ip), vehicle: carboxymethylcellulose (CMC)) was 106 % of control. For the same compound, the T/C (dose: 96.0 mg/kg/injection, schedule: Q03HX024 (ip), vehicle: Klucel (hydroxypropylcellulose) (HPC)) was 100 % of control, the T/C (dose: 100.0 mg/kg/injection, schedule: Q01DX001 (ip), vehicle: carboxymethylcellulose (CMC)) was 113 % of control and the T/C [1] was 112 % of control. For the same compound, the T/C (dose: 100.0 mg/kg/injection, schedule: Q01DX009 (ip), vehicle: Klucel (hydroxypropylcellulose) (HPC)) was 115 % of control, the T/C (dose: 100.0 mg/kg/injection, schedule: Q04DX003 (ip), vehicle: acetone) was 108 % of control and the T/C (dose: 104.0 mg/kg/injection, schedule: Q01DX001 (ip), vehicle: Klucel (hydroxypropylcellulose) (HPC)) was 103 % of control. For the same compound, the T/C (dose: 104.0 mg/kg/injection, schedule: Q04DX003 (ip), vehicle: Klucel (hydroxypropylcellulose) (HPC)) was 95 % of control, the T/C (dose: 110.0 mg/kg/injection, schedule: Q01DX Z (ip), vehicle: carboxymethylcellulose (CMC)) was 151 % of control and the T/C (dose: 110.0 mg/kg/injection, schedule: Q01DX Z (ip), vehicle: methylcellulose (MC)) was 94 % of control. For the same compound, the T/C (dose: 110.0 mg/kg/injection, schedule: Q01DX Z (ip), vehicle: saline) was 102 % of control, the T/C (dose: 125.0 mg/kg/injection, schedule: Q03HX024 (ip), vehicle: saline with Tween-80) was 102 % of control and the T/C (dose: 156.0 mg/kg/injection, schedule: Q01DX001 (ip), vehicle: Klucel (hydroxypropylcellulose) (HPC)) was 97 % of control. The T/C (dose: 156.0 mg/kg/injection, schedule: Q04DX003 (ip), vehicle: Klucel (hydroxypropylcellulose) (HPC)) was 103 % of control, the T/C (dose: 165.0 mg/kg/injection, schedule: Q01DX Z (ip), vehicle: carboxymethylcellulose (CMC)) was 152 % of control and the T/C (dose: 165.0 mg/kg/injection, schedule: Q01DX Z (ip), vehicle: methylcellulose (MC)) was 122 % of control. For the same compound, the T/C (dose: 165.0 mg/kg/injection, schedule: Q01DX Z (ip), vehicle: saline) was 104 % of control, the T/C (dose: 200.0 mg/kg/injection, schedule: Q01DX001 (ip), vehicle: carboxymethylcellulose (CMC)) was 112 % of control and the T/C [2] was 107 % of control. For the same compound, the T/C (dose: 200.0 mg/kg/injection, schedule: Q01DX009 (ip), vehicle: Klucel (hydroxypropylcellulose) (HPC)) was 108 % of control, the T/C (dose: 200.0 mg/kg/injection, schedule: Q04DX003 (ip), vehicle: acetone) was 107 % of control and the T/C (dose: 228.0 mg/kg/injection, schedule: Q01DX001 (ip), vehicle: Klucel (hydroxypropylcellulose) (HPC)) was 101 % of control. For the same compound, the T/C (dose: 228.0 mg/kg/injection, schedule: Q04DX003 (ip), vehicle: Klucel (hydroxypropylcellulose) (HPC)) was 98 % of control, the T/C (dose: 300.0 mg/kg/injection, schedule: Q01DX001 (ip), vehicle: carboxymethylcellulose (CMC)) was 112 % of control and the T/C (dose: 348.0 mg/kg/injection, schedule: Q01DX001 (ip), vehicle: Klucel (hydroxypropylcellulose) (HPC)) was 108 % of control. For the same compound, the T/C (dose: 348.0 mg/kg/injection, schedule: Q04DX003 (ip), vehicle: Klucel (hydroxypropylcellulose) (HPC)) was 104 % of control, the T/C (dose: 400.0 mg/kg/injection, schedule: Q01DX001 (ip), vehicle: carboxymethylcellulose (CMC)) was 111 % of control and the T/C [3] was 104 % of control. The T/C (dose: 400.0 mg/kg/injection, schedule: Q01DX009 (ip), vehicle: Klucel (hydroxypropylcellulose) (HPC)) was 104 % of control, the T/C (dose: 400.0 mg/kg/injection, schedule: Q04DX003 (ip), vehicle: acetone) was 103 % of control and the T/C (dose: 520.0 mg/kg/injection, schedule: Q01DX001 (ip), vehicle: Klucel (hydroxypropylcellulose) (HPC)) was 106 % of control.
With `O=c1cc(NCc2cccc([N+](=O)[O-])c2)[nH]c(=O)[nH]1` the T/C [4] was 91 % of control, the T/C [5] was 89 % of control and the T/C [6] was 93 % of control.
For `C=CCc1ccc(OC(=O)Nc2ccc(S(=O)(=O)N(C)C)cc2)c(OC)c1`, the T/C [1] was 94 % of control, the T/C [2] was 91 % of control and the T/C [3] was 91 % of control.
In the case of `CCCCCCC(C)O[Si](C)Cc1ccccc1` (configuration not stated), the T/C (dose: 100.0 mg/kg/injection, schedule: Q04DX003 (ip), vehicle: other) is reported as 95 % of control, the T/C (dose: 200.0 mg/kg/injection, schedule: Q04DX003 (ip), vehicle: other) is reported as 97 % of control and the T/C (dose: 400.0 mg/kg/injection, schedule: Q04DX003 (ip), vehicle: other) is reported as 94 % of control.
In the case of `COC(c1ccccc1)(c1ccccc1)C(C)O` (configuration not stated), the T/C (dose: 50.0 mg/kg/injection, schedule: Q01DX009 (ip), vehicle: saline with Tween-80) is reported as 87 % of control, the T/C [7] is reported as 97 % of control and the T/C [8] is reported as 103 % of control.
`O=C(O)C(Cc1ccsc1)C(=O)O` was tested, and the T/C [1] was 101 % of control and the T/C [2] was 93 % of control.
`COc1ccccc1NC(=O)CC(C)=O` was tested, and the T/C [4] was 100 % of control, the T/C [5] was 100 % of control and the T/C [7] was 103 % of control. The T/C [6] was 106 % of control, the T/C [8] was 95 % of control and the T/C (dose: 400.0 mg/kg/injection, schedule: Q01DX009 (ip), vehicle: saline with Tween-80) was 97 % of control.
`O=[N+]([O-])c1ccc(C(=NO)c2ccc([N+](=O)[O-])cc2)cc1` was tested, and the T/C [5] was 103 % of control, the T/C [6] was 109 % of control and the T/C [9] was 101 % of control.
For `COc1ccc(C(=S)N2CCN(c3ccc(Cl)cc3)CC2)cc1`, the T/C [1] was 95 % of control, the T/C [2] was 95 % of control and the T/C [3] was 95 % of control.
With `COC(=O)CC1(CC(=O)OC)C(=O)N(c2ccccc2)c2ccccc21` the T/C [5] was 90 % of control, the T/C [6] was 93 % of control and the T/C [9] was 93 % of control.
In the case of `COc1ccc(OC)c(NC(=O)NCCCl)c1`, the T/C (dose: 100.0 mg/kg/injection, schedule: Q04DX003 (ip), vehicle: Klucel (hydroxypropylcellulose) (HPC)) is reported as 101 % of control, the T/C (dose: 200.0 mg/kg/injection, schedule: Q04DX003 (ip), vehicle: Klucel (hydroxypropylcellulose) (HPC)) is reported as 98 % of control and the T/C (dose: 400.0 mg/kg/injection, schedule: Q04DX003 (ip), vehicle: Klucel (hydroxypropylcellulose) (HPC)) is reported as 87 % of control.
`O=C1C2C3CCC(O3)C2C(=O)N1C(=O)N1C(=O)C2C3CCC(O3)C2C1=O` (configuration not stated) was tested, and the T/C (dose: 25.0 mg/kg/injection, schedule: Q04DX002 (ip), vehicle: Klucel (hydroxypropylcellulose) (HPC)) was 101 % of control, the T/C (dose: 50.0 mg/kg/injection, schedule: Q04DX002 (ip), vehicle: Klucel (hydroxypropylcellulose) (HPC)) was 94 % of control and the T/C (dose: 100.0 mg/kg/injection, schedule: Q04DX002 (ip), vehicle: Klucel (hydroxypropylcellulose) (HPC)) was 111 % of control and 89 % of control.
With `C[N+](C)(C)C1(c2ccc(F)cc2)CCCCC1` the T/C (dose: 5.0 mg/kg/injection, schedule: Q01DX001 (ip), vehicle: saline) was 111 % of control, the T/C (dose: 10.0 mg/kg/injection, schedule: Q01DX001 (ip), vehicle: saline) was 105 % of control and the T/C (dose: 20.0 mg/kg/injection, schedule: Q01DX001 (ip), vehicle: saline) was 111 % of control.
For `COc1ccc2[nH]c(-c3ccccc3)c(-c3ccccc3)c2c1`, the T/C [7] was 90 % of control, the T/C (dose: 100.0 mg/kg/injection, schedule: Q04DX003 (ip), vehicle: saline with Tween-80) was 89 % of control and the T/C (dose: 200.0 mg/kg/injection, schedule: Q04DX003 (ip), vehicle: saline with Tween-80) was 87 % of control. For the same compound, the T/C (dose: 400.0 mg/kg/injection, schedule: Q04DX003 (ip), vehicle: saline with Tween-80) was 92 % of control.

Reference: PubChem BioAssay AID248 (DTP/NCI, 2004)
